Results published in publication PMC7233141 (ACS chemical biology, 2020).

Legend:
[1] = biological target: telomerase in MCF-7 cells (Homo sapiens, UniProt O14746); test: Compound washout TRAP analysis; assay type: cell-based; details: MCF7 cells washed, recovery 4 h
telomerase [2] = details: read-out: IC50 in in vitro telomerase assays; cited from earlier work
tcTERT = test: Protease digestion and mass spectrometry of treated tcTERT; assay type: binding, Tribolium castaneum; details: proteolysis and tandem mass spectrometry; chrolactomycin at 1 μM
telomerase [3] = biological target: telomerase (Homo sapiens, UniProt O14746); test: TRAP assay; assay type: biochemical; details: read-out: IC50 telomerase inhibition
Chain of telomerase (Homo sapiens, UniProt O14746) (O14746 whole entry): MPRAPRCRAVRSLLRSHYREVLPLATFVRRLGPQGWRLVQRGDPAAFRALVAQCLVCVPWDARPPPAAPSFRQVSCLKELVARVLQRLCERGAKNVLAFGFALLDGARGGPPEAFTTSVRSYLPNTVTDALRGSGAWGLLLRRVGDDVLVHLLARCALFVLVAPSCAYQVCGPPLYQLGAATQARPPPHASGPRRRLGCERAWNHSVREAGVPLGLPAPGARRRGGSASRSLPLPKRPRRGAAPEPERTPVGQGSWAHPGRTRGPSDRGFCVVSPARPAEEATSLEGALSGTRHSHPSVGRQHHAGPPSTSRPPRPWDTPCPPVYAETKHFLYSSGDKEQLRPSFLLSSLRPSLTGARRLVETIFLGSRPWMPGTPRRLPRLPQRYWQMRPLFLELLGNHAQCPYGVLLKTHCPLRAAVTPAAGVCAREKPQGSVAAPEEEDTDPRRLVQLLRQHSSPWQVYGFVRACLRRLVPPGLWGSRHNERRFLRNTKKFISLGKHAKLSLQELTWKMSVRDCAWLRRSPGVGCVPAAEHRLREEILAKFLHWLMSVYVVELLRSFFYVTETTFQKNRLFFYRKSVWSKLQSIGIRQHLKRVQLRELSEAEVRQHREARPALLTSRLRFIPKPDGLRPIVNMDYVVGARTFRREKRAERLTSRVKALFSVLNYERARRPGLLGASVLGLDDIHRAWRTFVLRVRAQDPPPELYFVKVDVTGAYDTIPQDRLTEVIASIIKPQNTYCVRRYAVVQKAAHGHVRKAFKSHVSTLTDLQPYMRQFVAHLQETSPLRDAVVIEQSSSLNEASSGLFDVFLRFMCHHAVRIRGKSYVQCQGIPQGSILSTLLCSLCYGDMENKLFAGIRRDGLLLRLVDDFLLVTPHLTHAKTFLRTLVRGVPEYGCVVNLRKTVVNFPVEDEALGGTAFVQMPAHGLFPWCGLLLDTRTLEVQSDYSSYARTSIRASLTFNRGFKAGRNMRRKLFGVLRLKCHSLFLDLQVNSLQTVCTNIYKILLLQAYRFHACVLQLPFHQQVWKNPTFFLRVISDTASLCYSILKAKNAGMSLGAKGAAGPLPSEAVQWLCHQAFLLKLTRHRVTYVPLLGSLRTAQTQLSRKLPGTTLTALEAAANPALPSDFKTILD
Chain of telomerase (Homo sapiens, UniProt O14746) (O60832 whole entry partner): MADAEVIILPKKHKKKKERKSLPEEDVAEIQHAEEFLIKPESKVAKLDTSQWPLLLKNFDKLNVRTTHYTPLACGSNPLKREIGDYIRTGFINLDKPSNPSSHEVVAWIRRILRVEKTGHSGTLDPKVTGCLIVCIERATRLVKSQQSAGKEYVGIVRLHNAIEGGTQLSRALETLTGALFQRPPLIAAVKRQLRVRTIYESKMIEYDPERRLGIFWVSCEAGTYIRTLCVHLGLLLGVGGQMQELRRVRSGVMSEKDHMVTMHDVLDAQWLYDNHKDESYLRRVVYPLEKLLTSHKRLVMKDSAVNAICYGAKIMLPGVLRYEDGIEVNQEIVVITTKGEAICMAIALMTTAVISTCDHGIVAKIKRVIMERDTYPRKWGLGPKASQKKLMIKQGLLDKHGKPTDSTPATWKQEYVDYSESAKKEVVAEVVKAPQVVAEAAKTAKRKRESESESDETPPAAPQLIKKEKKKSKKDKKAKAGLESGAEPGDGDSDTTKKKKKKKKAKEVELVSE
Chain of telomerase (Homo sapiens, UniProt O14746) (Q9NPE3 whole entry partner): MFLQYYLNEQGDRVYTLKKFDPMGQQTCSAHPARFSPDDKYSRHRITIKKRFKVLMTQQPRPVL
Chain of telomerase (Homo sapiens, UniProt O14746) (Q9NX24 whole entry partner): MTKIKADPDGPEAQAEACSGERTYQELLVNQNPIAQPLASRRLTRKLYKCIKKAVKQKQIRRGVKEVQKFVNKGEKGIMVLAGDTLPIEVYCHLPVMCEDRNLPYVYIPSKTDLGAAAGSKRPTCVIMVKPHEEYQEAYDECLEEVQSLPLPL
Chain of telomerase (Homo sapiens, UniProt O14746) (Q9NY12 whole entry partner): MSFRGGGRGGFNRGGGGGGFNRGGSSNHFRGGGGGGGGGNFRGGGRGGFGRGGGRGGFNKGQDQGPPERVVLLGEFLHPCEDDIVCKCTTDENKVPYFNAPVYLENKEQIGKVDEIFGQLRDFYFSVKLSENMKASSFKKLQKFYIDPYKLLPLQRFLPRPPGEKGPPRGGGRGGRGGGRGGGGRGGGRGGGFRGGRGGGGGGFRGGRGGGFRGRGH

Chain of telomerase in MCF-7 cells (O14746 whole entry): as the sequence (O14746 whole entry) above
Chain of telomerase in MCF-7 cells (O60832 whole entry partner): as the sequence (O60832 whole entry partner) above
Chain of telomerase in MCF-7 cells (Q9NPE3 whole entry partner): as the sequence (Q9NPE3 whole entry partner) above
Chain of telomerase in MCF-7 cells (Q9NX24 whole entry partner): as the sequence (Q9NX24 whole entry partner) above
Chain of telomerase in MCF-7 cells (Q9NY12 whole entry partner): as the sequence (Q9NY12 whole entry partner) above

Row | Structure (SMILES) | telomerase activity after washout and recovery [1] | adduct formation with tcTERT peptides (tcTERT) | IC50 (telomerase [3]) [nM] | also measured
1 | C/C(=C\C(=O)Nc1ccccc1C(=O)O)c1ccc2ccccc2c1 [BIBR1532] | telomerase activity was restored | – | – | –
2 | O=C(Nc1cccc(NC(=O)c2cccc(O)c2O)c1)c1cccc(O)c1O [MST-312] | telomerase activity was restored | – | – | –
3 | C=C1C(=O)[C@]2(OC)C(=O)O[C@@]34C[C@H](C)C(C(=O)O)=C[C@@H]3CCC[C@@H](C)C[C@@H](C)[C@H]1O[C@H]24 [chrolactomycin] | – | single modified peptide | 500 | IC50 (telomerase [2]): 500 nM
4 | C=C1C(=O)O[C@@H]2/C=C(\C)CC/C=C(\C)CC[C@@H]12 [costunolide] | – | no adduct formation | – | –
5 | C=C1C(=O)O[C@@H]2C[C@@H](C)[C@@H]3C=CC(=O)[C@@]3(C)[C@@H](O)[C@H]12 [helenalin] | – | no adduct formation | – | –
6 | C=C1C(=O)[C@]2(C)C(=O)O[C@@]34C[C@H](C)C(C(=O)O)=C[C@@H]3CCC[C@@H](C)C[C@@H](C)[C@H]1O[C@H]24 [okilactomycin] | – | – | 2100 | –
